Data: PubChem BioAssay (NCI)
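96-well plates; 48 h exposure; 5 concentrations. Endpoints by linear interpolation between flanking doses. Not reached: highest tested concentration assigned. Abbreviation: GI50, concentration required for 50% inhibition of growth. At the TGI there is no net growth.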

Assays:
Test in all cases: growth of human tumour cells (NCI), 48 h
SK-OV-3 ovarian = system: SK-OV-3 ovarian
RXF 393 renal = system: RXF 393 renal
UACC-257 melanoma = system: UACC-257 melanoma
BT-549 breast = system: BT-549 breast
MALME-3M melanoma = system: MALME-3M melanoma
CAKI-1 renal = system: CAKI-1 renal
T-47D breast = system: T-47D breast
KM12 colon = system: KM12 colon
SF-295 CNS = system: SF-295 CNS
HOP-92 NSCLC = system: HOP-92 NSCLC
NCI-H460 lung = system: NCI-H460 lung
UACC-62 melanoma = system: UACC-62 melanoma
SF-268 CNS = system: SF-268 CNS
A549 NSCLC = system: A549 NSCLC
SNB-19 CNS = system: SNB-19 CNS
SK-MEL-2 melanoma = system: SK-MEL-2 melanoma
MOLT-4 leukemia = system: MOLT-4 leukemia
LOX IMVI melanoma = system: LOX IMVI melanoma
EKVX NSCLC = system: EKVX NSCLC
SN12C renal = system: SN12C renal
PC-3 prostate = system: PC-3 prostate
OVCAR-4 ovarian = system: OVCAR-4 ovarian
MDA-MB-435 = system: MDA-MB-435
M14 melanoma = system: M14 melanoma

`COC(=O)/C(C#N)=C\N1CCN(C(=O)c2ccco2)C1=S` was tested, and the GI50 (SK-OV-3 ovarian) was 28.2 µM, the TGI (SK-OV-3 ovarian) was > 100 µM and the GI50 (RXF 393 renal) was 3.1 µM. The TGI (RXF 393 renal) was 7.71 µM, the GI50 (UACC-257 melanoma) was 5.94 µM and the TGI (UACC-257 melanoma) was 22.5 µM. It also gave a GI50 (BT-549 breast) of 4.16 µM, a TGI (BT-549 breast) of 13.6 µM and a GI50 (MALME-3M melanoma) of 32.7 µM. It also gave a TGI (MALME-3M melanoma) of 63.7 µM, a GI50 (CAKI-1 renal) of 3.43 µM and a TGI (CAKI-1 renal) of 14.1 µM. The GI50 (T-47D breast) was 4.63 µM, the TGI (T-47D breast) was 67.1 µM and the GI50 (KM12 colon) was 3.3 µM. It also gave a TGI (KM12 colon) of 12.6 µM, a GI50 (SF-295 CNS) of 26 µM and a TGI (SF-295 CNS) of 65.1 µM. The GI50 (HOP-92 NSCLC) was 14 µM, the TGI (HOP-92 NSCLC) was 43.1 µM and the GI50 (NCI-H460 lung) was 2.47 µM. For the same compound, the TGI (NCI-H460 lung) was 4.95 µM, the GI50 (UACC-62 melanoma) was 10.7 µM and the TGI (UACC-62 melanoma) was 27.2 µM. It also gave a GI50 (SF-268 CNS) of 4.83 µM, a TGI (SF-268 CNS) of 17.9 µM and a GI50 (A549 NSCLC) of 14.6 µM. The TGI (A549 NSCLC) was 37.7 µM, the GI50 (SNB-19 CNS) was 54.9 µM and the TGI (SNB-19 CNS) was > 100 µM. For the same compound, the GI50 (SK-MEL-2 melanoma) was 2.94 µM, the TGI (SK-MEL-2 melanoma) was 8.39 µM and the GI50 (MOLT-4 leukemia) was 7.41 µM. For the same compound, the TGI (MOLT-4 leukemia) was > 100 µM, the GI50 (LOX IMVI melanoma) was 2.39 µM and the TGI (LOX IMVI melanoma) was 8 µM. The GI50 (EKVX NSCLC) was 10.2 µM, the TGI (EKVX NSCLC) was 28.5 µM and the GI50 (SN12C renal) was 3.69 µM. The TGI (SN12C renal) was 14.4 µM, the GI50 (PC-3 prostate) was 6.82 µM and the TGI (PC-3 prostate) was 63.4 µM. For the same compound, the GI50 (OVCAR-4 ovarian) was 23.3 µM, the TGI (OVCAR-4 ovarian) was 58.8 µM and the GI50 (MDA-MB-435) was 6.82 µM. For the same compound, the TGI (MDA-MB-435) was 46.5 µM, the GI50 (M14 melanoma) was 6.35 µM and the TGI (M14 melanoma) was 19.9 µM.
